Results published in article PMC9016807, “Metabolic, Pharmacokinetic, and Activity Profile of the Liver Stage Antimalarial (RC-12)” (ACS Omega, 2022).
Several values for one entry are separate records, joined by “and”; a condition that tells them apart may be missing. Equal entries are not always repeated. Where two headings read alike, the source gives them in different places.

Columns and labels:
[1] = system: P. falciparum (NF54 clone); assay: Blood stage activity against cultured P. falciparum; format: cell-based, Plasmodium falciparum; conditions: concentration up to 15 μM
[2] = system: P. cynomolgi hypnozoites; design: method as in PMID 4091527; conditions: cited from earlier work
[3] = system: P. vivax liver-stage parasites; assay: P. vivax liver-stage in vitro assay, radical cure mode; format: cell-based, Plasmodium vivax; conditions: 20 μM, two independent runs, threshold for activity 75% inhibition
Experimental: Compound 1 and its metabolites were tested in both prophylactic and radical cure modes for activity against P. vivax liver-stage parasites.[16],[17] In the prophylactic assay, compounds are added the day after sporozoite invasion into hepatocytes in order to characterize the compound activity against established liver forms with a parasitophorous vacuole membrane (as opposed to activity on preinvasion sporozoites) and prior to complete maturation of hypnozoites into drug-insensitive dormant forms, which appear at about 5 days postinvasion.[18] In the radical cure assay, compounds are added at day 5 postinfection to characterize activity against late-stage schizonts and mature PI4K inhibitor-insensitive hypnozoites.[19] In these experiments, the threshold for activity is 75% inhibition. […] Similarly, as previously described,[20] 10 μM concentrations of 1 and its metabolites were also tested for activity against P. cynomolgi schizont (large forms) and hypnozoite (small forms) liver-stage parasites cultured in rhesus monkey hepatocytes. In these experiments, the threshold for activity is 50% inhibition.
Compounds were prepared as 20 mM stock solutions in DMSO and tested in an eight-point semilog (1/3) dilution series from 20 μM in 384-well assay plates in both prophylactic and radical cure mode against P. vivax liver-stage parasites as previously described.[16] Following ethical approval from the Institutional Ethics Committee of the Thai Ministry of Public Health, the Ethical Review Committee of Faculty of Tropical Medicine, Mahidol University (TMEC 11-008 and 14-016), the Oxford Tropical Medicine Ethical Committee, Oxford University, England (OxTREC 17-11 and 40–14), and the Cambodian National Ethics Committee for Health Research (101NECHR), isolates of P. vivax infected blood were collected from patent volunteers in Tak province, Thailandm and Mondulkiri province, Cambodia. Samples were collected by venipuncture into heparin tubes prior to replacement of patient serum with nonimmune AB human serum and feeding to laboratory-reared Anopheles dirus cracens or An. dirus A mosquitoes via water-jacket artificial membrane feeders or the Hemotek insect feeding system (Hemotek, Blackburn, UK) set to maintain the bloodmeal temperature at 37 °C. […] Cryopreserved human hepatocytes (BioIVT, Baltimore, Maryland, USA) were thawed into InVitroGro CP Medium (BioIVT), quantified for viability by trypan blue dye exclusion, diluted to 800–1000 live cells per microliter, and 18000 live cells were plated into each well of a collagen-coated 384-well plate (Greiner, Monroe, NC, USA) by a 16-channel pipet (Finnpipette, Thermo Fisher Scientific, Waltham, MA). […]

[4] = Pharmacokinetics in rats after IV and PO administration; format: in vivo, male Sprague–Dawley rats
Experimental: Animal studies were conducted using established procedures in accordance with the Australian Code of Practice for the Care and Use of Animals for Scientific Purposes, and the study protocols were reviewed and approved by the Monash Institute of Pharmaceutical Sciences Animal Ethics Committee. The study was conducted in overnight-fasted male Sprague–Dawley rats weighing 266–292 g. Rats had access to water ad libitum throughout the pre- and postdose sampling period, and access to food was reinstated 4 h postdose. Compound 1 was administered intravenously as a 10 min constant rate infusion via an indwelling jugular vein cannula (1 mL per rat, n = 5 rats) and orally by gavage (10 mL/kg per rat, n = 2–3 rats), and samples of arterial blood and total urine were collected up to 24 h postdose. Arterial blood was collected directly into borosilicate vials (at 4 °C) containing heparin. Blood samples were centrifuged, and the supernatant plasma was removed and stored frozen (−80 °C) until analysis by LC-MS. Plasma samples and calibration standards (prepared in blank rat plasma) were processed by protein precipitation with a 2-fold volume of acetonitrile. LC-MS analysis was conducted using a Waters Micromass Quattro Premier triple-quadrupole mass spectrometer coupled to a Waters Acquity UPLC with a Phenomenex C18 Kinetex column (50 × 2.1 mm, 2.7 μm). Elution was achieved using a methanol–water gradient (containing 8.2 mM formic acid and 1.25 mM ammonium formate) with a flow rate of 0.6 mL/min, a gradient cycle time of 6 min, and an injection volume of 2 μL. MS detection was conducted using positive electrospray ionization with multiple reaction monitoring. Transitions (m/z), cone voltages (V), and CID voltages (V) were as follows: 1, 430.26 > 99.93, 40, 20; 2, 416.27 > 99.80, 30, 20; 3, 402.22 > 99.93, 35, 20; 4, 388.23 > 99.86, 35, 20; 5: 374.25 > 72.01, 35, 25; diazepam (285.25 > […], 40, 25) (used as an internal standard). The quantitation range in plasma was typically 1–10000 ng/mL, and the accuracy and precision were within ±10% and <10%, respectively, for each analyte. Urine samples were analyzed using either a 20- or 200-fold dilution with 50% acetonitrile and assayed against calibration standards prepared in the same solvent.

[5] = PO, 11 mg/kg, individual values n = 2
[6] = male, Sprague-Dawley, rat, plasma, po, 27 mg/kg

CCN(CC)CCN(CCN(CC)CC)c1cc(OC)c(OC)cc1Br [Compound 1, 4-(2-bromo-4,5-dimethoxyphenyl)-1,1,7,7-tetraethyldiethylenetriamine]
blood stage activity [1]: no blood stage activity
efficacy against hypnozoites relative to primaquine [2]: about 1 order of magnitude less effective than primaquine
hemolysis [2]: produced no hemolysis
toxicity relative to primaquine [2]: 1 order of magnitude less toxic
activity against schizonts or hypnozoites [3]: no activity
dose excreted in urine as parent ([4]; IV, 3 mg/kg, individual values): 9.2% and 10.7%
Cmax [4, 5]: 50 nM
Tmax [4, 5]: 0.8 h
plasma half-life [4, 5]: 6.1 h
half-life ([4]; male, Sprague-Dawley, rat, plasma, intravenous and oral, after IV and PO administration, read-out: terminal half-life): 5 to 7 h
clearance ([4]; male, Sprague-Dawley, rat, plasma, iv, 3 mg/kg): 147 ± 33 mL/min/kg
half-life ([4]; male, Sprague-Dawley, rat, plasma, iv, 3 mg/kg, IV, 3 mg/kg, n = 5, read-out: plasma half-life (converted)): 7 ± 1.3 h
Vd ([4]; male, Sprague-Dawley, rat, plasma, iv, 3 mg/kg, read-out: plasma volume of distribution): 51 ± 10 L/kg
bioavailability ([4]; male, Sprague-Dawley, rat, plasma, po, 11 mg/kg): ~16%
Tmax ([4]; male, Sprague-Dawley, rat, plasma, po, 11 mg/kg, PO, 11 mg/kg, individual values n = 2, read-out: Tmax): 1 h
half-life ([4]; male, Sprague-Dawley, rat, plasma, po, 11 mg/kg, PO, 11 mg/kg, individual values n = 2, read-out: plasma half-life (converted)): 4.9 h
Cmax ([4]; male, Sprague-Dawley, rat, plasma, po, 11 mg/kg, individual values n = 2): 70 nM
Cmax [4, 6]: 310 ± 30 nM
bioavailability [4, 6]: ~27%
half-life ([4]; male, Sprague-Dawley, rat, plasma, po, 27 mg/kg, PO, 27 mg/kg, n = 3, read-out: plasma half-life (converted)): 7.4 ± 1.3 h
Tmax ([4]; male, Sprague-Dawley, rat, plasma, po, 27 mg/kg, PO, 27 mg/kg, read-out: Tmax): 1 h
Tmax ([4]; male, Sprague-Dawley, rat, plasma, po, oral administration, read-out: time of maximum plasma concentrations postdose): ~1 h
blood plasma ratio ([4]; male, Sprague-Dawley, whole blood and plasma, 3 mg/kg, rat, IV column): 2.1
renal elimination as share of overall in vivo clearance ([4]; rat): approximately 10%
